The record followed here is US20200247808A1, “Heterocyclic Tec-Family Kinase Inhibitors” (GB005, Inc., priority 2015, published 2020).

Entries after “also recorded” stand apart in the source; their conditions may differ.

The target of one test is T1, human BTK (Homo sapiens, UniProt Q06187).
T1 construct: purchased Eurofins Pharma Discovery Services UK Limited (contract assay, KinaseProfiler)
The experiment in a line: BTK kinase inhibition, KinaseProfiler radiometric protein kinase assay (Eurofins). It is filed as biochemical. The method, then: In vitro potency of selected compound was defined against human BTK, EGFR, and ErbB2 kinases using Kinase Profiler radiometric protein kinase assays performed at Eurofins Pharma Discovery Services UK Limited.
Each kinase is diluted in buffer and all compounds were prepared to 50x final assay concentration in 100% DMSO. This working stock of the compound was added to the assay well as the first component in the reaction, followed by the remaining components as detailed in the assay protocol listed above. The reaction was initiated by the addition of the MgATP mix. […] (specific activity approx. 500 cpm/pmol, concentration as required) and variable test article concentrations. […] The reaction was stopped by the addition of 3% phosphoric acid solution. 10 μL of the reaction is then spotted onto a P30 filtermat and washed three times for 5 minutes in 75 mM phosphoric acid and once in methanol prior to drying and scintillation counting. In addition positive control wells contain all components of the reaction, except the compound of interest; however, DMSO (at a final concentration of 2%) were included in these wells to control for solvent effects as well as blank wells contain all components of the reaction, with a reference inhibitor replacing the compound of interest. This abolishes kinase activity and establishes the base-line (0% kinase activity remaining). The potency of each compound was reported by estimating the EC50.

For test [1], the system named is TMD-8 human activated B cell diffuse large B cell lymphoma cells. The experiment in a line: TMD-8 survival assay (Cell Titer-Glo). The class given is cell-based. The conditions noted are these: TMD8, TMD-8 cells, 72 h. The method, then: TMD-8 human activated B cell diffuse large B cell lymphoma cells were seeded in 96-well plates at a density of 20,000 cells/well in HyClone RPMI supplemented with 10% FBS (Fisher)/1% Penicillin/Streptomycin (HyClone) and incubated at 37° C., 5% CO2. Cells were treated in triplicate with 1,000 nM or 100 nM curves of compounds for 72h. Cell survival was measured by Cell Titer-Glo Luminescent Assay (Promega). EC50 values (50% proliferation in the presence of compound as compared to vehicle treated controls) were calculated from dose response compound curves using GraphPad Prism Software.

Test [2] concerns collagen-induced arthritis. Kind of test: Mouse CIA (collagen-induced arthritis) model. The class given is in vivo, mouse (B10RIII). The note with it: mice, oral gavage 10 and 30 mg/kg, BID, to RA day 12. The method, then: Mouse CIA model was performed using the methods described by Trentham D E, Townes A S, Kang A H. Autoimmunity to Type II Collagen: An Experimental Model of Arthritis. J Exp Med 1977; 857-868, and Bendele A M. Animal Models of Rheumatoid Arthritis. J Musculoskel Interact 2001; 377-385.
[…]. On experimental day 0 mice were anaesthetized with isoflurane and the dorsal surface was shaved. Collagen, emulsified in Freund's complete adjuvant (CFA) supplemented with additional mycobacterium tuberculosis (TB) H37Ra, was injected intradermally at the base of the tail (0.15 mL / animal; 2 mg/mL collagen and 2.5 mg/mL TB in CFA). This CFA treatment was repeated on day 15.
From day 15 to the end of the study animals were scored daily for signs of arthritis. On the first day of disease (RA Day 1) animals were recruited to the study and grouped using a balanced design based on arthritis score. Once recruited, animals were weighed and dosed twice daily by gavage (PO, BID). Recruited animals were then scored twice a week on RA days 1, 5, 8 and 12.
At the end of the study (RA day 12) animals were weighed and scored.

The target in a further test is EGFR (Homo sapiens, UniProt P00533). Kind of test: Inhibition of cellular EGFR (EGF-stimulated EGFR autophosphorylation in MDA-468 cells). The class given is cell-based. Further details: MDA-468 human breast tumor cells which express functional EGFR; endogenous in cells; host or cells: MDA-468 human breast tumor cells. The conditions noted are these: 1 h pretreatment, 10 ng/mL EGF 5 min, phospho-EGFR/EGFR ratio.
Chain of EGFR (P00533 25-1210): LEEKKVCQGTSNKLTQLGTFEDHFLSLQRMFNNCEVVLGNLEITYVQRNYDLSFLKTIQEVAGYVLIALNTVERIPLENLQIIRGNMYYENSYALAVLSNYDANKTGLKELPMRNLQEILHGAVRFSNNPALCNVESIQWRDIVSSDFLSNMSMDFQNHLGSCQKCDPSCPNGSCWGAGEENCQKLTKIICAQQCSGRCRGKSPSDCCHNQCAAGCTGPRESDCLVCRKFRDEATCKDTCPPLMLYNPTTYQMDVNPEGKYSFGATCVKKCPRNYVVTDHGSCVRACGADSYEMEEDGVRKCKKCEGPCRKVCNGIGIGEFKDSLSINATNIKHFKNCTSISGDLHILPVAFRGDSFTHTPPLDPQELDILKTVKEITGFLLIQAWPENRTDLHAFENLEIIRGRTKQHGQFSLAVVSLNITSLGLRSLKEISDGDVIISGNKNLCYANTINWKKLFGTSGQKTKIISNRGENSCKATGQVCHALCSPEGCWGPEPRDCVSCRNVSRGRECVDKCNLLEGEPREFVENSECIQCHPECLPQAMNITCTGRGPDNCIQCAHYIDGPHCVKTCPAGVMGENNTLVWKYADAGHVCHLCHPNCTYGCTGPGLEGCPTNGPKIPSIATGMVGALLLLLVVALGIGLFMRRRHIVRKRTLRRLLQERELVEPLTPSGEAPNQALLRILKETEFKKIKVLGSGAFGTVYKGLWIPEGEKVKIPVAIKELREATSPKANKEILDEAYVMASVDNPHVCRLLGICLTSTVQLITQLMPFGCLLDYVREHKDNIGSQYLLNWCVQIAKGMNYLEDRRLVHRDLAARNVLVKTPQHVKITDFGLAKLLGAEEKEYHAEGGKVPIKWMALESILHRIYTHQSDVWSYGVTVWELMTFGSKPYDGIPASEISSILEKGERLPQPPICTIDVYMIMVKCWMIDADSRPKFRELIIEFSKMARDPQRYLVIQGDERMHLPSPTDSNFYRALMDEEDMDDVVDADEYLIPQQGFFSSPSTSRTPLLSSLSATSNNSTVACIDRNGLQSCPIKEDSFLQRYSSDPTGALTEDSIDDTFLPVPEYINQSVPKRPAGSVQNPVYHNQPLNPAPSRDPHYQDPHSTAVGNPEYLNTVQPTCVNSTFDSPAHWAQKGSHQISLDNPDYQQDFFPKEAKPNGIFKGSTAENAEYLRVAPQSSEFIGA

T1 sequence (Q06187 whole entry): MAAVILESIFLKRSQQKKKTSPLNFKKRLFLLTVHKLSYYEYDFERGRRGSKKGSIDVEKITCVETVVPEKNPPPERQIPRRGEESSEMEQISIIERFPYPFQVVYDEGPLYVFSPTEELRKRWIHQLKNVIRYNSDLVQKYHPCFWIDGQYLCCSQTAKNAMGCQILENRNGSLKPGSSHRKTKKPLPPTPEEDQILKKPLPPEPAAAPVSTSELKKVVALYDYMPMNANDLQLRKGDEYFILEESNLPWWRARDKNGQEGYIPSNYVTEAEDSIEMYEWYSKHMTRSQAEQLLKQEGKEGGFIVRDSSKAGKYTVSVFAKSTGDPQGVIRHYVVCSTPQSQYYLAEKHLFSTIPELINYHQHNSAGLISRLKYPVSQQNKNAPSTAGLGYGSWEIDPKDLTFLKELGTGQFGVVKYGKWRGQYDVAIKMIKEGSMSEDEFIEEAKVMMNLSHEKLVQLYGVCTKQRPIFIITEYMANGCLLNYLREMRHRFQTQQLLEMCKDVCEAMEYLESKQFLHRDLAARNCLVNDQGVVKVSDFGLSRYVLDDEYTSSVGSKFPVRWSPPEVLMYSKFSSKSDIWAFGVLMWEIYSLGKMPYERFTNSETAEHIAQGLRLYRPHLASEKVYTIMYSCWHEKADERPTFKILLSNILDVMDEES
Description for EGFR: Cells were plated at a densitity of 400 000 cells/well in 6×12-well plates in a final volume of 1 ml/well in DMEM high glucose+10% FBS +1% Pen/Strep and cultured at 37 C and 5% CO2 overnight. The following day the media was replaced with serum free media and the cells were cultured for a further 24 hours.
Cells were pretreated with compound for 1 hour and then stimulated with 10 ng/mL EGF for 5 minutes. Media was removed and cells were lysed in 100 uL/well of RIPA buffer+1% Protease Inhibitor cocktail+1% Phosphatase inhibitor cocktail. Protein concentrations were determined by
BCA assay. 25μ of cellular protein from each cell treatment was separated by SDS-PAGE. Proteins were transferred to nitrocellulose membranes and blocked with TBS-T+5% non-fat milk. EGFR and phospho-EGFR were detected following incubation overnight at 4° C. with Rabbit anti-phospho-EGFR (Tyr1068) (Cell signaling) diluted 1/1000 and Mouse anti-EGFR (1F4) (Cell signaling) diluted 1/1000 in TBS-T+5% nonfat dry milk and then incubation for 1 h at RT with IR Dye 800CW goat anti-rabbit diluted 1/15000 and with IR Dye 680RD goat anti-mouse diluted 1/15000 in TBS-T+5% nonfat dry milk+0.01% SDS. Antibody binding was quatified using a Li-cor Odyssey CLx. Phospho-EGFR/EGFR ratios were calculated for each test condition of control and test article and the EC50 of inhibiton of EGF-stimulated EGFR phosphorylation was calculated.

In general, IC50 refers to the point on the concentration scale where inhibition reaches its midpoint. For orientation: EC50 means the concentration that produces a half-maximal response. In the case of `CC#CC(=O)N[C@H]1C[C@@H](n2nc(-c3ccc(Oc4ccccc4)cc3)c3c(N)ncnc32)C1` [Compound 1], the half-maximal inhibitory concentration (IC50) against human BTK was found to be 3 nM. The concentration for a half-maximal effect (EC50) in test [1] was 1 nM; on EGFR, 5960 nM. The “Effect on arthritis in mouse CIA model” value in test [2] is “prevented the progression of arthritis; also recorded: effective in the mouse collagen-induced arthritis model”.
In the same order, the values of `C=CC(=O)N[C@H]1C[C@@H](n2nc(-c3ccc(Oc4ccccc4)cc3)c3c(N)ncnc32)C1` [Compound 2] are 3 nM, 1.9 nM, 376 nM and “prevented the progression of arthritis; also recorded: effective in the mouse collagen-induced arthritis model”.
